Experimental data from a compilation of properties of binary mixtures (doi:10.1007/s10953-017-0578-y).

Test: xn = mol fraction of the nth substance listed
Settings: 100 kPa

CNc1ccccc1 + CC[n+]1ccn(C)c1.F[B-](F)(F)F
speed of sound [m/s]
Settings | x2 = 0 | x2 = 0.1046 | x2 = 0.2048 | x2 = 0.3057 | x2 = 0.3985 | x2 = 0.5064 | x2 = 0.6045 | x2 = 0.6994 | x2 = 0.8005 | x2 = 0.9084
293.15 K | – | 1603.9 | 1617.6 | 1627.9 | 1632.7 | 1632.5 | – | 1627.7 | 1625.9 | 1627
303.15 K | – | 1568.9 | 1586.9 | – | 1603.8 | 1604.7 | 1604.1 | 1602.6 | 1601.3 | 1604
313.15 K | 1511.7 | – | – | 1567 | 1574.4 | 1576.1 | 1578.3 | 1577.9 | 1576.2 | 1579.4
323.15 K | 1476.4 | 1500.3 | 1523.6 | 1537.2 | 1545.6 | 1549 | – | 1551.6 | 1550.4 | 1553.3

CC[n+]1ccn(C)c1.F[B-](F)(F)F + CNc1ccccc1
x1 = 1
Settings | speed of sound [m/s]
293.15 K | 1632.6
303.15 K | 1609.5
313.15 K | 1586.2
323.15 K | 1563.4
